This is an account of results in ChEMBL document CHEMBL1201862, “PubChem BioAssay data set” (2004).

Holding throughout (experiment): NCI anticancer screen, dose series, 48 h
Assay [1] concerns MDA-MB-231.
Assay [2] relates to SF-295.
Assay [3] has as its system MDA-MB-435.
Assay [4] relates to M14.
Assay [5] has as its system A498.
Assay [6] deals with EKVX.
Assay [7] concerns HCT-15.
In assay [8] the test system is CAKI-1.
Assay [9] has as its system HOP-62.
The subject of assay [10] is HCC 2998.
For assay [11], the system named is UACC-62.
Assay [12] has as its system TK-10.
For assay [13], the system named is ACHN.
In assay [14] the test system is PC-3.
In assay [15] the test system is SK-MEL-5.
Assay [16] deals with KM12.
Assay [17] concerns BT-549.
Assay [18] concerns SW-620.
In assay [19] the test system is NCI/ADR-RES.

Where a name gives a salt, the structure may show the parent alone.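 Compound exposure: 48 hours, 5 concentrations, 96-well plates. Here, GI50 denotes the concentration required for 50% inhibition of growth.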 Activity calls are given as the source filed them. Rule as the data show it: active = GI50 up to about 1.1 µM and inactive = higher.

As for `O=[N+]([O-])C(C(Cl)=C(Cl)Cl)=C(N1CCOCC1)N1CCOCC1`, the GI50 in assay [1], in [2], in [3], in assay [4], in assay [5] and in assay [6] was > 100 µM (inactive) throughout. Moreover, the GI50 is more than 100 µM in assay [7]; > 100 µM (inactive) in [8]; > 100 µM (inactive) in assay [9]; > 100 µM (inactive) in [10]; > 100 µM (inactive) in assay [11]; > 100 µM (inactive) in assay [12]. Moreover, the GI50 in assay [13], in [14], in [15] and in assay [16] was > 100 µM (inactive) in each case.
`O=Cc1cc2c(cc1-c1c(C=O)ccc3c1OCO3)OCO2`: the GI50 in assay [1] was > 10 µM (inactive); in assay [2] it was > 10 µM (inactive); in assay [3] it was > 10 µM (inactive); in assay [4], > 10 µM (inactive); in [7], more than 10 µM; in assay [8], > 10 µM (inactive). For the same compound, the GI50 in assay [9], in assay [10], in [11], in assay [17], in [12] and in assay [18] was > 10 µM (inactive) in each case. Further, the GI50 in assay [19], in assay [13], in assay [14], in assay [15] and in assay [16] was > 10 µM (inactive) each time.
As for `O=c1cc(-c2ccccc2)oc2cc(O)cc(O)c12` [CHRYSIN], the GI50 in assay [2] was 14.9 µM (inactive); in [4] it was 33 µM (inactive); in assay [6], 23.1 µM (inactive); in assay [7], 20.4 µM; in assay [9] it was 31.4 µM (inactive); in assay [10], 19.8 µM (inactive). Further, the GI50 in assay [11] was 21.5 µM (inactive); in assay [12], 34.5 µM (inactive); in assay [13], 15.2 µM (inactive); in [15] it was 10.1 µM (inactive); in assay [16] it was 15.5 µM (inactive).
As for `CN(C)c1cccc2c(S(=O)(=O)NCCCNCCN)cccc12`, the GI50 in [1] is 41.5 µM (inactive); in assay [2], 55.2 µM (inactive); in assay [3], 27.4 µM (inactive); in assay [4], 18.9 µM (inactive); in assay [5], 29.6 µM (inactive); in assay [6], > 100 µM (inactive). Besides, the GI50 in [7] is more than 100 µM; in [8] it was > 100 µM (inactive); in assay [9] it was 67.8 µM (inactive); in [10], 24 µM (inactive); in assay [11] it was 51.2 µM (inactive); in assay [18] it was 55.2 µM (inactive). For the same compound, the GI50 is > 100 µM (inactive) in assay [19]; > 100 µM (inactive) in assay [13]; 44.2 µM (inactive) in assay [14]; 20.8 µM (inactive) in assay [15]; 67 µM (inactive) in [16].
Turning to `C#Cc1cccc(Nc2ncnc3cc(OCCOC)c(OCCOC)cc23)c1` [ERLOTINIB HYDROCHLORIDE], the GI50 in [1] is 0.0139 µM (active); in [2], 16.2 µM (inactive); in assay [3] it was 4.06 µM (inactive); in assay [4], 6.67 µM (inactive); in assay [7], 4.76 µM; in assay [8], < 0.01 µM (active). In addition, the GI50 in assay [9] was 31.3 µM (inactive); in assay [11], < 0.01 µM (active); in assay [18], > 100 µM (inactive); in assay [19] it was 7.67 µM (inactive); in [13], 0.109 µM (active); in [14], 34.5 µM (inactive). Besides, the GI50 in assay [15] is 1.41 µM (inactive); in [16] it was 18.2 µM (inactive).
On to `COC(=O)/C=C(\C)CC/C=C(\C)CCC(O)C(C)(C)O` (centres undefined), for which the GI50 in [1] was > 100 µM (inactive); in assay [2], 23.1 µM (inactive); in assay [4] it was 27.1 µM (inactive); in assay [5], 33 µM (inactive); in assay [6] it was 41.9 µM (inactive); in assay [7], 23.3 µM. Further, the GI50 was 20.4 µM (inactive) in assay [8]; 21.8 µM (inactive) in assay [9]; 16.8 µM (inactive) in [10]; 25.1 µM (inactive) in [11]; 29 µM (inactive) in assay [17]; 45 µM (inactive) in assay [12]. The GI50 in assay [18] is 22.7 µM (inactive); in assay [19], 18.7 µM (inactive); in assay [13] it was 25.6 µM (inactive); in assay [14], 14.8 µM (inactive); in assay [15], 16.6 µM (inactive); in assay [16], 13.9 µM (inactive).
On to `O=C(O)c1ccc(Nc2cnc3cc(C(F)(F)F)ccc3n2)cc1`, for which the GI50 is 36.7 µM (inactive) in [1]; 89.3 µM (inactive) in [2]; 43.5 µM (inactive) in [3]; 40.6 µM (inactive) in assay [6]; 25.6 µM in assay [7]; > 100 µM (inactive) in assay [8]. Besides, the GI50 in [9] was 90.2 µM (inactive); in [10], 30.2 µM (inactive); in assay [11], 25.3 µM (inactive); in assay [12], 31.5 µM (inactive); in assay [18], 69.8 µM (inactive); in assay [19], 40.9 µM (inactive). The GI50 in assay [13] is 34.1 µM (inactive); in [14], 80.7 µM (inactive); in assay [15], 40.8 µM (inactive); in [16] it was 37.1 µM (inactive).
As for `CC1=CC(=O)C[C@]2(C)[C@@H](O)CC(C(C)CO)C[C@@H]12` (some centres undefined), the GI50 in assay [1], in assay [2], in assay [3], in [4], in assay [5] and in [6] was > 100 µM (inactive) in each case. In addition, the GI50 in assay [7] is more than 100 µM; in assay [8] it was > 100 µM (inactive); in [9], > 100 µM (inactive); in assay [10], > 100 µM (inactive); in assay [11], > 100 µM (inactive); in [17], > 100 µM (inactive). In addition, the GI50 in assay [12], in assay [18], in [19], in assay [13], in assay [15] and in [16] was > 100 µM (inactive) throughout.
As to `CCOC(=O)c1ccc(NCc2ccc3oc(=O)c(-c4ccccc4)nc3c2)cc1`, the GI50 in [1] was 64.7 µM (inactive); in assay [2], > 100 µM (inactive); in [3], 16.2 µM (inactive); in [4] it was 31.3 µM (inactive); in [5] it was 61.1 µM (inactive); in assay [6], 52.8 µM (inactive). The GI50 in [7] is 81.5 µM; in assay [8] it was 5.2 µM (inactive); in assay [9], > 100 µM (inactive); in assay [10], > 100 µM (inactive); in [11], > 100 µM (inactive); in assay [18], 21.6 µM (inactive). For the same compound, the GI50 in assay [19] was 50.7 µM (inactive); in [13], 26.6 µM (inactive); in assay [14], 45.2 µM (inactive); in assay [15], 23.6 µM (inactive); in assay [16], > 100 µM (inactive).
Consider `FC(F)(F)c1ccc(/N=C/C=C(/Nc2ccc(C(F)(F)F)cc2)c2ccc(Cl)cc2)cc1`, for which the GI50 in assay [1] was 14.5 µM (inactive); in assay [2], 15.8 µM (inactive); in [3], 6.82 µM (inactive); in assay [4], 12.8 µM (inactive); in assay [6], 15.9 µM (inactive); in assay [7], 4.73 µM. The GI50 in assay [8] was 3.49 µM (inactive); in assay [9] it was 18.2 µM (inactive); in [11], 1.82 µM (inactive); in assay [12], 15.8 µM (inactive); in assay [18], 11 µM (inactive); in assay [19], 13.7 µM (inactive). The GI50 in [13] was 10.1 µM (inactive); in [14], 18 µM (inactive); in assay [15], 6.56 µM (inactive); in assay [16], 4.71 µM (inactive).
Consider `O=C1Cc2c([nH]c3ccc(Br)cc23)-c2ccccc2N1` [KENPAULLONE], for which the GI50 in assay [1], in [2], in assay [3], in [4], in assay [5] and in assay [6] was > 100 µM (inactive) throughout. For the same compound, the GI50 was 4.46 µM in [7]; 65.8 µM (inactive) in assay [9]; > 100 µM (inactive) in [10]; > 100 µM (inactive) in assay [11]; > 100 µM (inactive) in [12]; > 100 µM (inactive) in [19]. Further, the GI50 in [13] is > 100 µM (inactive); in assay [14], > 100 µM (inactive); in assay [15], > 28.4 µM (inactive); in [16], 2.73 µM (inactive).
As for `COCn1cc(C2=C(C)C(=O)C(C)=C(C)C2=O)cn1`, the GI50 is 18.6 µM (inactive) in [1]; > 100 µM (inactive) in [2]; 19.6 µM (inactive) in assay [3]; > 100 µM (inactive) in [4]; > 100 µM (inactive) in [5]; 18.2 µM (inactive) in assay [6]. Further, the GI50 in assay [7] was more than 100 µM; in assay [8] it was > 100 µM (inactive); in [9] it was > 100 µM (inactive); in assay [10], > 100 µM (inactive); in [11], > 100 µM (inactive); in assay [12], > 100 µM (inactive). Moreover, the GI50 in assay [18] is > 100 µM (inactive); in [19] it was 26.2 µM (inactive); in assay [13] it was 85.9 µM (inactive); in assay [14] it was > 100 µM (inactive); in assay [15] it was 38.1 µM (inactive); in assay [16] it was > 100 µM (inactive).
